The nature of data set [1]: Inhibition of His-tagged human RBP4- biotin immobilized TTR (unknown origin) protein-protein interaction in presence of retinol by ELISA.
The nature of data set [2]: Inhibition of His-tagged mouse RBP4- biotin immobilized TTR (unknown origin) protein-protein interaction in presence of retinol by ELISA.
Data set [3] is described as follows: Reduction in blood RBP4 level in C57BL/6J mouse assessed as RBP4 leve in blood at 10 mg/kg, po after 24 hrs by ELISA (reference value: 100%). The data set is classed as functional. Further details: scale not given: the % may be the effect or the level left.
The nature of data set [4]: Reduction in blood RBP4 level in C57BL/6J mouse assessed as RBP4 leve in blood at 10 mg/kg, po after 7 hrs by ELISA (reference value: 100%). More on the design: scale not given: the % may be the effect or the level left. The class given is functional.
Data set [5] is described as follows: AUC in ICR mouse at 1 mg/kg, po. The data set is classed as ADME, organism-based. More on the design: dose 1 mg/kg, route po. The settings on record: in vivo.
Data set [6] can be described thus: Oral bioavilability in ICR mouse at 1 mg/kg. The settings on record: in vivo. The class given is ADME, organism-based.
A short description of data set [7]: Reduction in blood RBP4 level in C57BL/6J mouse assessed as RBP4 leve in blood at 10 mg/kg, po after 4 hrs by ELISA (reference value: 100%). The class given is functional. More on the design: scale not given: the % may be the effect or the level left.
Data set [8] can be described thus: Cmax in ICR mouse at 1 mg/kg, po. The data set is classed as ADME, organism-based. More on the design: dose 1 mg/kg, route po. The conditions noted are these: in vivo.
A further data set has as its system Mus musculus. Nature of the data set: Reduction in blood RBP4 level in C57BL/6J mouse assessed as RBP4 leve in blood at 0.3 to 10 mg/kg, po after 4 to 24 hrs hrs by ELISA (reference value: 100%). The class given is functional, organism-based. The conditions noted are these: dose 0.3-10 mg/kg, time 4-24 hrs, DDE = dose-dependent effect.
Data set [9] in a line: Reduction in blood RBP4 level in C57BL/6J mouse assessed as RBP4 leve in blood at 3 mg/kg, po after 7 hrs by ELISA (reference value: 100 +/- 12%). The data set is classed as functional. More on the design: scale not given: the % may be the effect or the level left.
Data set [10] is described as follows: Reduction in blood RBP4 level in C57BL/6J mouse assessed as RBP4 leve in blood at 0.3 mg/kg, po after 7 hrs by ELISA (reference value: 100 +/- 3.9%). The class given is functional. Further details: scale not given: the % may be the effect or the level left.
Data set [11] in a line: Reduction in blood RBP4 level in C57BL/6J mouse assessed as RBP4 leve in blood at 1 mg/kg, po after 7 hrs by ELISA (reference value: 100 +/- 9.8%). The class given is functional. More on the design: scale not given: the % may be the effect or the level left.
Data set [12] is described as follows: Reduction in blood RBP4 level in C57BL/6J mouse assessed as RBP4 leve in blood at 1 mg/kg, po after 24 hrs by ELISA (reference value: 100 +/- 9.8%). The data set is classed as functional. Further details: scale not given: the % may be the effect or the level left.
A short description of data set [13]: Reduction in blood RBP4 level in C57BL/6J mouse assessed as RBP4 leve in blood at 0.3 mg/kg, po after 4 hrs by ELISA (reference value: 100 +/- 3.9%). The class given is functional. Further details: scale not given: the % may be the effect or the level left.
Data set [14] can be described thus: Reduction in blood RBP4 level in C57BL/6J mouse assessed as RBP4 leve in blood at 0.3 mg/kg, po after 24 hrs by ELISA (reference value: 100 +/- 3.9%). The data set is classed as functional. More on the design: scale not given: the % may be the effect or the level left.
Data set [15] can be described thus: Reduction in blood RBP4 level in C57BL/6J mouse assessed as RBP4 leve in blood at 1 mg/kg, po after 4 hrs by ELISA (reference value: 100 +/- 9.8%). The class given is functional. Further details: scale not given: the % may be the effect or the level left.
Data set [16] can be described thus: Reduction in blood RBP4 level in C57BL/6J mouse assessed as RBP4 leve in blood at 3 mg/kg, po after 24 hrs by ELISA (reference value: 100 +/- 12%). The class given is functional. Further details: scale not given: the % may be the effect or the level left.
A short description of data set [17]: Reduction in blood RBP4 level in C57BL/6J mouse assessed as RBP4 leve in blood at 3 mg/kg, po after 4 hrs by ELISA (reference value: 100 +/- 12%). The data set is classed as functional. Further details: scale not given: the % may be the effect or the level left.

As to `O=C(O)COC1CCN(c2cc(F)cc(C(F)(F)F)c2)C1` (racemic), the IC50 in data set [1] is 190 nM; in data set [2], 1200 nM.

Turning to `O=C(O)CO[C@@H]1CCN(c2cc(C(F)(F)F)cc(C(F)(F)F)c2)C1`, the Activity is reported as 38.6% in [3], 40.5% in [4] and 42.2% in [7]. Moreover, the figures for the IC50 in [1] and in data set [2] were 21 nM and 130 nM, respectively. In data set [5], this compound showed an AUC of 17900 ng·h/mL. This compound also gave a bioavailability in data set [6] of 51%. In data set [8], this compound returned a maximum concentration (Cmax) of 2920 ng/mL.

Consider `O=C(O)CCC1CCN(c2cc(C(F)(F)F)cc(C(F)(F)F)c2)CC1`, for which the IC50 in data set [1] stood at 270 nM; in [2], 3800 nM.

Turning to `O=C(O)COC1CCN(c2cc(Cl)cc(C(F)(F)F)c2)C1` (racemic), the IC50 in data set [1] came out at 96 nM; in data set [2], 420 nM.

In the case of `O=C(O)COC1CCN(c2ccc(F)c(C(F)(F)F)c2)C1` (racemic), the 50% inhibitory concentration (IC50) was 230 nM in [1] and 1600 nM in data set [2].

As for `O=C(O)CO[C@H]1CCN(c2cc(C(F)(F)F)cc(C(F)(F)F)c2)C1`, the Activity in [3] was 37.5%; in the data set on Mus musculus it was “Dde”; in data set [9], 41.5%; in data set [10] it was 56.6%; in [11], 42.4%; in data set [12], 53%. Besides, the Activity in data set [13] was determined as 64.6%; in data set [4], 39.6%; in data set [14], 75%; in data set [15], 51.6%; in [7], 39.5%; in [16], 43.6%. The Activity in data set [17] stood at 50.4%. Further, the 50% inhibitory concentration (IC50) in data set [1] stood at 28 nM; in data set [2], 110 nM. This compound registered an AUC in data set [5] of 22000 ng·h/mL. Also, the bioavailability in [6] stood at 58%. This compound had a maximum concentration (Cmax) in [8] of 2910 ng/mL.

In the case of `O=C(O)CCC1CN(c2cc(C(F)(F)F)cc(C(F)(F)F)c2)C1`, the half-inhibitory concentration (IC50) in data set [1] was 40 nM; in [2] it was 740 nM.

For `O=C(O)CCc1ncc(-c2cc(C(F)(F)F)cc(C(F)(F)F)c2)o1`, the 50% inhibitory concentration (IC50) is 130 nM in [1] and 1200 nM in data set [2].

Consider `FC(F)(F)c1cc(N2CCC(OCc3nnn[nH]3)C2)cc(C(F)(F)F)c1` (racemic), for which the values for the IC50 in [1] and in [2] were 48 nM and 270 nM, respectively.

As to `O=C(O)CCc1cnc(-c2cc(C(F)(F)F)cc(C(F)(F)F)c2)o1`, the values for the 50% inhibitory concentration (IC50) in data set [1] and in [2] were 6000 nM and > 30000 nM, respectively.

As for `O=C(O)C1CCN(c2cc(C(F)(F)F)cc(C(F)(F)F)c2)C1` (racemic), the concentration for half-maximal inhibition (IC50) was 1000 nM in data set [1] and 5900 nM in data set [2].

Regarding `O=C(O)COC1CCN(c2cc(C(F)(F)F)cc(C(F)(F)F)c2)C1` (racemic), the IC50 in data set [1] was 16 nM; in data set [2], 100 nM.

As for `O=C(O)CC1CCN(c2cc(C(F)(F)F)cc(C(F)(F)F)c2)C1` (racemic), the half-inhibitory concentration (IC50) in data set [1] turned out to be 42 nM; in [2], 300 nM.

Consider `COC(=O)CO[C@H]1CCN(c2cc(C(F)(F)F)cc(C(F)(F)F)c2)C1`, for which the half-inhibitory concentration (IC50) is 150 nM in [1] and 200 nM in [2].

Take `O=C(O)COC1CCN(c2cccc(C(F)(F)F)c2F)C1` (racemic): the IC50 was determined as 240 nM in data set [1] and 1500 nM in data set [2].

`O=C(O)CCC1CCN(c2cc(C(F)(F)F)cc(C(F)(F)F)c2)C1` (racemic): the half-inhibitory concentration (IC50) in data set [1] is 51 nM; in data set [2], 220 nM.

As for `COc1cc(N2CCC(OCC(=O)O)C2)cc(C(F)(F)F)c1` (racemic), the IC50 was determined as 82 nM in data set [1] and 870 nM in data set [2].

Consider `O=C(O)COC1CCN(c2cccc(C(F)(F)F)c2)C1` (racemic), for which the IC50 in [1] is 520 nM; in data set [2], 2400 nM.

With `O=C(O)CCc1nc(-c2cc(C(F)(F)F)cc(C(F)(F)F)c2)co1`, the 50% inhibitory concentration (IC50) was 24 nM in data set [1] and 420 nM in [2].
